Assays:
FABP3 = target: T1, FABP3 (Homo sapiens, UniProt P05413); assay: MST binding of fluorescent fatty acids to FABP3
T1 construct: purchased Sigma Aldrich
Procedure: (§1) FABPs are known to bind more hydrophobic ligands with higher affinity ([1]).
(§2) Microscale thermophoresis (MST) experiments were carried out on a Monolith NT.115 MST device (NanoTemper Technologies GmbH). […] […] In order to minimize the effect of protein aggregation, 0.05 Vol-% of Tween 20 (NanoTemper Technologies GmbH) were added to the HEPES/NaCl buffer solution. Samples were prepared in low-binding Eppendorf tubes. The influence of photobleaching on the quantum yield was reduced by using freshly diluted fluorophore solutions and storing the samples under the exclusion of light during the incubation time of 10 min. The samples were loaded into premium capillaries (NanoTemper Technologies GmbH). The coated capillary surface is designed to avoid the adhesion of molecules. Initially, repeated pre-tests without protein but with different fluorophore concentrations were carried out. This was done to find the optimum concentration and excitation power and to check the fluorescence activity of the fluorophores. The fluorescence intensity had to be in the range of 300 to 600 counts, with preferably smooth MST traces. For binding affinity measurements, the concentration of the fluorescent fatty acid was held constant at 80 nM, while the non-labeled FABPs were used at variable concentrations in a dilution series. The power of the IR laser was held constant at a medium set for all measurements, generating a constant temperature gradient. The measurements were performed as duplicates, using the software MO. Control (version 1.6) and afterward analyzed with the software MO. Affinity Analysis (version 2.3) (NanoTemper Technologies GmbH). The mean fluorescence intensities at the start time were divided by the values at the end time of the MST traces and normalized, obtaining the MST signal Fnorm. For all analyses, the end time was manually set to 1.5 s after the start of the heating process. Fnorm was normalized for the amplitude and baseline corrected to obtain the bound fraction.

FABP5 = target: T2, FABP5 (Homo sapiens, UniProt Q01469); assay: MST binding of fluorescent fatty acids to FABP5
T2 construct: purchased Sigma Aldrich
T2 sequence (Q01469 whole entry): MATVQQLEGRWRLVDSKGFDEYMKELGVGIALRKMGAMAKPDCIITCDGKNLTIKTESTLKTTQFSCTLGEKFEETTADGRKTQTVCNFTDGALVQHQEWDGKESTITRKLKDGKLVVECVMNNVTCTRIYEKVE
Procedure: as §1, §2

FABP4 = target: T3, FABP4 (Homo sapiens, UniProt P15090); assay: MST binding of fluorescent fatty acids to FABP4
T3 construct: purchased Sigma Aldrich
T3 sequence (P15090 whole entry): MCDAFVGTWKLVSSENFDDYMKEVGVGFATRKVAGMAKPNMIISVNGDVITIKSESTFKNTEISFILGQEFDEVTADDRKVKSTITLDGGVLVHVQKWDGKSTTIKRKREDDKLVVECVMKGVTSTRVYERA
Procedure: as §1, §2

FABPs = target: FABPs; parameters: method as in PMID 11461829; details: moderate to high binding affinities of FABPs, ref [2]; cited from earlier work
[1] = 80 nM rhodamine-PA, HEPES/NaCl pH 7.5 with 0.05 Vol-% Tween 20

T1 sequence (P05413 whole entry): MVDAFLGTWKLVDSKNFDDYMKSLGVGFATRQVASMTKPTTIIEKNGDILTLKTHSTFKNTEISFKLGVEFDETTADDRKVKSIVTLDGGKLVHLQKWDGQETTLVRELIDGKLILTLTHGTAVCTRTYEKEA

Row | lnKA (FABP3) | Kd (FABP3; [1]) [µM] | ΔGm,A (molar Gibbs energy of association) (FABP3; at 22 °C, van't Hoff equation) [kcal/mol] | lnKA (FABP5) | Kd (FABP5; [1]) [µM] | ΔGm,A (molar Gibbs energy of association) (FABP5; at 22 °C, van't Hoff equation) [kcal/mol] | lnKA (FABP4) | Kd (FABP4; 80 nM rhodamine-PA, FABP4 handled in water) [µM] | ΔGm,A (molar Gibbs energy of association) (FABP4; at 22 °C, van't Hoff equation) [kcal/mol] | Structure (SMILES) | Kd (FABPs) [µM]
1 | 12.56 ± 0.11 | 3.5 ± 0.4 | -7.36 ± 0.0645 | 11.7 ± 0.08 | 8.3 ± 0.7 | -6.86 ± 0.048 | 11.46 ± 0.18 | 10.5 ± 2.1 | -6.72 ± 0.105 | CCN(CC)c1ccc2c(-c3ccc(S(=O)(=O)NCCCCCCCCCCCCCCCC(=O)O)cc3S(=O)(=O)[O-])c3ccc(=[N+](CC)CC)cc-3oc2c1 [rhodamine-PA, [16-N-(lissamine rhodamine ß sulfonyl)amino] palmitic acid] | 
2 |  |  |  |  |  |  |  |  |  | CCCCCCCC/C=C\CCCCCCCC(=O)O [oleic acid] | 0.44 to 1.56
